Experimental data reported in patent US7598271B1, “Crystalline paroxetine methane sulfonate” (Noven Therapeutics, LLC, priority 1997, dated 2009).
Where a name gives a salt, the structure may show the parent alone. Read-outs that look alike come from different tables or passages of the source.

Columns and labels:
[1] = Hygroscopicity test of paroxetine salts (40° C., 75% rel. hum); format: physicochemical
Source text: (§1) In the following tables 2 and 3, examples of results of hygroscopicity tests and stability tests (in comparison with known salts of paroxetine) are presented.

[2] = Solubility of paroxetine salts in water; format: physicochemical; details: for solubility: water
[3] = Stability of paroxetine salts by HPLC (total amount of degradation); format: physicochemical
Source text: as §1

[4] = background statement on known salts; cited from earlier work
[5] = background statement; cited from earlier work
[6] = causes undesired colouration during classical wet tabletting; cited from earlier work

Cc1ccc(S(=O)(=O)O)cc1.Fc1ccc([C@@H]2CCNC[C@H]2COc2ccc3c(c2)OCO3)cc1 [p-toluene sulfonate, Paroxetine p-Toluene Sulfonate]
water content (in %) at t = 0 [1]: 0.70%
water content (in %) at t = 4 weeks [1]: <0.02%
Solubility in water ([2]; 20° C.): >1000 mg/mL
Solubility in water ([2]; 50° C.): >1000 mg/mL
total amount of degradation by HPLC ([3]; 20° C., time not given): not observed
total amount of degradation by HPLC ([3]; 80° C., 3 months): <0.2%, 3 months
Solubility in 2-Propanol (20° C.): 14 mg/mL
Solubility in 2-Propanol (82° C.): >500 mg/mL
Solubility in Acetone (20° C.): 16 mg/mL
Solubility in Acetone (56° C.): 125 mg/mL
Solubility in Ethanol (20° C.): 50 mg/mL
Solubility in Ethanol (78° C.): >500 mg/mL
Solubility in Ethyl acetate (20° C.): 22 mg/mL
Solubility in Ethyl acetate (77° C.): >500 mg/mL
Solubility in n-Hexane (20° C.): <0.05 mg/mL
Solubility in n-Hexane (69° C.): <0.05 mg/mL

CS(=O)(=O)O.Fc1ccc([C@@H]2CCNC[C@H]2COc2ccc3c(c2)OCO3)cc1 [methane sulfonate, Paroxetine Methane Sulfonate]
water content (in %) at t = 0 [1]: 0.35%
water content (in %) at t = 4 weeks [1]: +0.04%
Solubility in water ([2]; 20° C.): >1000/10 min mg/ml
Solubility in water ([2]; 50° C.): 1300 mg/mL
total amount of degradation by HPLC ([3]; 20° C., time not given): not observed
total amount of degradation by HPLC ([3]; 80° C., 3 months): <0.2%, 3 months
Solubility in 2-Propanol (20° C.): 7 mg/mL
Solubility in 2-Propanol (82° C.): 330 mg/mL
Solubility in Acetone (20° C.): 5 mg/mL
Solubility in Acetone (56° C.): 37 mg/mL
Solubility in Ethanol (20° C.): 36 mg/mL
Solubility in Ethanol (78° C.): 250 mg/mL
Solubility in Ethyl acetate (20° C.): 2 mg/mL
Solubility in Ethyl acetate (77° C.): 25 mg/mL
Solubility in n-Hexane (20° C.): <0.05 mg/mL
Solubility in n-Hexane (69° C.): 0.05 mg/mL

Fc1ccc([C@@H]2CCNC[C@H]2COc2ccc3c(c2)OCO3)cc1 [hydrochloride, paroxetine hydrochloride, reference compound]
water content (in %) at t = 4 weeks [1]: +2.5%

Paroxetine Maleate [reference compound]
total amount of degradation by HPLC ([3]; 20° C., 12 months): 0.2%, 12 months
total amount of degradation by HPLC ([3]; 80° C., 5 days): >50%, 5 days
stability (in words) [4]: unstable

Fc1ccc([C@@H]2CCNC[C@H]2COc2ccc3c(c2)OCO3)cc1 [hydrochloride hemihydrate, paroxetine hydrochloride hemihydrate, reference compound]
solubility ([2]; 20 °C): 4.9 mg/mL
solubility ([2]; 50 °C): 12.6 mg/mL
solubility in water (in words) [5]: only limited solubility in water
photostability (in words) [6]: limited photostability

Paroxetine Acetate
stability (in words) [4]: unstable

Fc1ccc([C@@H]2CCNC[C@H]2COc2ccc3c(c2)OCO3)cc1 [hydrochloride anhydrate, paroxetine hydrochloride, reference compound]
Solubility in water ([2]; 20° C., hydrochloride): 8.2 mg/mL
Solubility in water ([2]; 50° C., hydrochloride): 24.2 mg/mL
